≈ marks a conversion by molar mass, not a printed value.
Key:
[1] = test system: K. pneumoniae (38 clinical isolates); experiment: Antibacterial activity on representative drug-resistance bacteria: number of clinical isolates per MIC value; assay type: cell-based; conditions: K. pneumomiae (N = 38)
Method: (§1) The in vitro antibacterial activity was evaluated by measuring MIC90 (ug/mL) of each of the compounds of Examples 1 to 68, which is defined as the lowest concentration of an antibiotic that will inhibit the visible growth of 90% of microorganisms after incubation as compared with a control group to which the antibiotic is not treated. MIC90 values were measured by the broth microdilution method developed by the Clinical and Laboratory Standards Institute (CLSI) (see CLSI M7-A5, Methods for Dilution Antimicrobial Susceptibility Test for Bacteria that Grow Aerobically-Fifth Edition (2000): CLSI, Villanova, Pa.).
(§2) Test compounds each (the cephalosporin derivative compounds prepared in Examples 1 to 68) were dissolved in DMSO at the concentration of 10,240 ug/mL, were diluted by two fold with DMSO, and then were diluted by twenty fold with sterilized distilled water. The final concentration in the antibacterial activity test was in the range of […] to 128 ug/mL, and the final concentration of DMSO used as an adjuvant was 2.5% (V/V).

[2] = test system: P. aeruginosa (16 clinical isolates); experiment: as above; assay type: cell-based; conditions: P. aeruginosa (N = 16)
Method: as §1, §2

[3] = test system: A. baumannii (6 clinical isolates); experiment: as above; assay type: cell-based; conditions: MIC >16 ug/mL; A. baumanni (N = 6)
Method: as §1, §2

[4] = test system: K. pneumoniae β14; experiment: In vitro antibacterial activity test (broth microdilution); assay type: cell-based; conditions: Klebsiella pneumoniae, read-out: MIC90
Procedure, shortened: (§3)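 Stocks at 10,240 ug/mL in DMSO, serially diluted in DMSO then water to final 0.0626–128 ug/mL (2.5% V/V DMSO). CLSI broth microdilution; MIC90, ug/mL.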

[5] = test system: P. aeruginosa 6065Y; experiment: as above; assay type: cell-based; conditions: Pseudomonas aeruginosa, read-out: MIC90
Procedure, shortened: as §3

[6] = test system: P. aeruginosa 43; experiment: as above; assay type: cell-based; conditions: Pseudomonas aeruginosa; P. aeruginosa 43; read-out: MIC90
Procedure, shortened: as §3

[7] = test system: A. baumannii 49; experiment: as above; assay type: cell-based; conditions: Acinetobacter baumannii; A. baumannii 49; read-out: MIC90
Procedure, shortened: as §3

[8] = test system: E. cloacae β19; experiment: as above; assay type: cell-based; conditions: Enterobacter cloacae, read-out: MIC90
Procedure, shortened: as §3

[9] = test system: K. pneumoniae 2011E; experiment: as above; assay type: cell-based; conditions: Klebsiella pneumoniae, 2011E, K. pneumoniae 2011E; read-out: MIC90
Procedure, shortened: as §3

[10] = test system: A. baumannii 52; experiment: as above; assay type: cell-based; conditions: Acinetobacter baumannii; A. baumannii 52; read-out: MIC90
Procedure, shortened: as §3

[11] = test system: K. pneumoniae β9; experiment: as above; assay type: cell-based; conditions: Klebsiella pneumoniae, K. pneumoniae β9; read-out: MIC90
Procedure, shortened: as §3

[12] = test system: M. catarrhalis 2524; experiment: as above; assay type: cell-based; conditions: Moraxella catarrhalis; M. catarrhalis 2524; read-out: MIC90
Procedure, shortened: as §3

[13] = test system: K. pneumoniae β13; experiment: as above; assay type: cell-based; conditions: Klebsiella pneumoniae, K. pneumoniae β13; read-out: MIC90
Procedure, shortened: as §3

[14] = test system: K. pneumoniae β11; experiment: as above; assay type: cell-based; conditions: Klebsiella pneumoniae; K. pneumoniae β11; read-out: MIC90
Procedure, shortened: as §3

[15] = test system: P. aeruginosa 37; experiment: as above; assay type: cell-based; conditions: Pseudomonas aeruginosa, 37, P. aeruginosa 37; read-out: MIC90
Procedure, shortened: as §3

[16] = test system: K. pneumoniae β10; experiment: as above; assay type: cell-based; conditions: Klebsiella pneumoniae; K. pneumoniae β10; read-out: MIC90
Procedure, shortened: as §3

[17] = test system: P. aeruginosa 40; experiment: as above; assay type: cell-based; conditions: Pseudomonas aeruginosa, 40, P. aeruginosa 40; read-out: MIC90
Procedure, shortened: as §3

[18] = test system: E. coli β4; experiment: as above; assay type: cell-based; conditions: Escherichia coli, read-out: MIC90
Procedure, shortened: as §3

[19] = test system: A. baumannii 46; experiment: as above; assay type: cell-based; conditions: Acinetobacter baumannii; A. baumannii 46; read-out: MIC90
Procedure, shortened: as §3

[20] = test system: A. calcoaceticus ATCC15473; experiment: as above; assay type: cell-based; conditions: Acinetobacter calcoaceticus; A. calcoaceticus ATCC15473; read-out: MIC90
Procedure, shortened: as §3

[21] = test system: E. coli AG100; experiment: as above; assay type: cell-based; conditions: Escherichia coli, AG100, E. coli AG100; read-out: MIC90
Procedure, shortened: as §3

[22] = test system: P. aeruginosa 1912E; experiment: as above; assay type: cell-based; conditions: Pseudomonas aeruginosa, 1912E, read-out: MIC90
Procedure, shortened: as §3

[23] = test system: P. aeruginosa R1023; experiment: In vivo efficacy, whole-body infected mouse model, Ceftazidime-resistant bacteria;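 on Survival rate: each column one dose of 5 10 20 or 40 mg/kg given sc at 1 h and 4 h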; design: species or system ICR mouse; conditions: for Survival rate: subcutaneous 1 h and 4 h after infection, P. aeruginosa R1023 (2 × 10^6 CFU/mouse), four days
Method: (§4) Pharmaceutical efficacy of the cephalosporin derivative compounds according to the present invention was evaluated in a whole-body infected mouse model. Tables 3 and 4 show survival rate and ED50 values for the two compounds with excellent antibacterial activity with regard to an infected mouse by a drug-sensitive bacteria and a drug-resistant bacteria.
(§5) Test animals: 3 week old male ICR mouse, weight 18˜22 g; 5 mice/group.
(§6) Lab conditions: Temperature of 23±2° C.; humidity of 55±20%.
(§7) Administration method: Inducing whole-body infection by bacterial solution followed by subcutaneous injection (0.2 mL) after 1 hour and 4 hours.
(§8) Test method: Cultured bacteria were diluted with 0.9% NaCl to prepare a bacterial solution having a concentration that is 5 to 10 times of […]. 0.5 mL of bacterial solution was injected through abdominal cavity to induce whole-body infection. Test compounds were administered in four different amounts, which were designed considering in vitro MIC values of the test bacteria. After 1 hour and 4 hours, the four different amounts of the test compounds were subcutaneously administered. Survival rates were measured for four days and ED50 values were calculated according to the Probit method.

[24] = test system: P. aeruginosa 1912E; experiment: In vivo efficacy, whole-body infected mouse model, Ceftazidime-sensitive bacteria; design: species or system ICR mouse; conditions: P. aeruginosa 1912E (2 × 10^6CFU/mouse); for Survival rate: four days
Method: as §4, §5, §6, §7, §8

In the case of Cn1c(N)c(NC(=O)NCCN)c[n+]1CC1=C(C(=O)O)N2C(=O)[C@@H](NC(=O)/C(=N\OC(C)(C)C(=O)[O-])c3nsc(N)n3)[C@H]2SC1 [CXA-101, reference compound], the “number of clinical isolates that showed the respective MIC value” (from here on “number”) ([1]; MIC 1 ug/mL) is reported as 1, the “number” value ([1]; MIC 2 ug/mL) is reported as 1 and the “number” value ([1]; MIC 16 ug/mL) is reported as 1. The “number” value ([1]; MIC >16 ug/mL) was 35, the “number” value ([2]; MIC 2 ug/mL) was 4 and the “number” value ([2]; MIC 4 ug/mL) was 4. The “number” value ([2]; MIC 8 ug/mL) was 1, the “number” value ([2]; MIC >16 ug/mL) was 7 and the “number” value [3] was 6.
Compound CC(C)(O/N=C(\C(=O)N[C@@H]1C(=O)N2C(C(=O)[O-])=C(C[n+]3ccccc3)CS[C@H]12)c1csc(N)n1)C(=O)O [Ceftazidime, reference compound] has an MIC90 [4] of 64 µg/mL (≈ 117 µM), an MIC90 [5] of 32 µg/mL (≈ 58.5 µM) and an MIC90 [6] of 16 µg/mL (≈ 29.3 µM). For the same compound, the MIC90 [7] was > 64 µg/mL, the MIC90 [8] was 32 µg/mL (≈ 58.5 µM) and the MIC90 [9] was 1 µg/mL (≈ 1.83 µM). The MIC90 [10] was > 64 µg/mL, the MIC90 [11] was 16 µg/mL (≈ 29.3 µM) and the MIC90 [12] was < 0.0625 µg/mL. It also gave an MIC90 [13] of 32 µg/mL (≈ 58.5 µM), an MIC90 [14] of 64 µg/mL (≈ 117 µM) and an MIC90 [15] of 64 µg/mL (≈ 117 µM). It also gave an MIC90 [16] of 32 µg/mL (≈ 58.5 µM), an MIC90 [17] of 4 µg/mL (≈ 7.32 µM) and an MIC90 [18] of 8 µg/mL (≈ 14.6 µM). For the same compound, the MIC90 [19] was 4 µg/mL (≈ 7.32 µM), the MIC90 [20] was 1 µg/mL (≈ 1.83 µM) and the MIC90 [21] was 0.5 µg/mL (≈ 0.915 µM). The MIC90 [22] was 1 µg/mL (≈ 1.83 µM), the “number” value ([1]; MIC 0.5 ug/mL) was 2 and the “number” value ([1]; MIC 4 ug/mL) was 1. The “number” value ([1]; MIC 16 ug/mL) was 3, the “number” value ([1]; MIC >16 ug/mL) was 32 and the “number” value ([2]; MIC 2 ug/mL) was 1. For the same compound, the “number” value ([2]; MIC 4 ug/mL) was 2, the “number” value ([2]; MIC 8 ug/mL) was 1 and the “number” value ([2]; MIC 16 ug/mL) was 1. For the same compound, the “number” value ([2]; MIC >16 ug/mL) was 11, the “number” value [3] was 6 and the ED50 ([23]; Pseudomonas aeruginosa, sc, Probit method, subcutaneous, mouse infected by Ceftazidime-resistant P. aeruginosa R1023) was 640 mg/kg. It also gave a Survival rate ([23]; administered amount 5 mg/kg) of 0%, a Survival rate ([23]; administered amount 10 mg/kg) of 20% and a Survival rate ([23]; administered amount 20 mg/kg) of 20%. For the same compound, the Survival rate ([23]; administered amount 40 mg/kg) was 20%, the Survival rate ([24]; 2.5 mg/kg subcutaneous after 1 hour and 4 hours) was 40% and the Survival rate ([24]; 5 mg/kg subcutaneous after 1 hour and 4 hours) was 80%. It also gave a Survival rate ([24]; 10 mg/kg subcutaneous after 1 hour and 4 hours) of 100%, a Survival rate ([24]; 20 mg/kg subcutaneous after 1 hour and 4 hours) of 100% and an ED50 ([24]; Pseudomonas aeruginosa, sc, subcutaneous, Probit method) of 2.5 mg/kg.
